Reference: US10927096B2, “Ester substituted ion channel blockers and methods for use” (Nocion Therapeutics, Inc., priority 2019, dated 2021)

What was measured:
[1] = PAMPA membrane permeability assay; format: physicochemical; conditions: pH 7.4 buffer, GIT lipid, 4 hours incubation
Method: The PAMPA assay (pION, Inc., Woburn Mass.) was used to determine the ability of compounds of the invention to cross an artificial lipid membrane by passive diffusion. Test compounds were dissolved in DMSO (10 mM) and diluted 200-fold in buffer (pION Inc., pH 7.4) to provide 50 uM stock solutions. Buffer (150 μL) was added to a UV blank plate and stock solutions (150 μL) were transferred to a UV reference plate. The blank and reference spectrum were read using a spectrophotometer. Stock solutions (200 μL) were added to the donor plate of the PAMPA sandwich plate and an accept plate painted with GIT lipid (pION Inc, 5 μL) was placed on top. Buffer (200 μL) was added to the acceptor plate and the PAMPA sandwich plate was incubated for 4 hours. Aliquots (150 μL) from the acceptor plate were added to a UV plate and read as acceptor spectrum. Aliquots (150 μL) of the donor solutions were added to a UV analysis plate and read as donor spectrum. The permeability coefficient of test compounds was calculated using PAMPA Explorer™ software (version 3.5.0.4) based on the AUC of the reference plate, the donor plate, and the acceptor plate.
The PAMPA permeability results (10^−6 cm/s) of representative compounds are reported as “+” (<0.1 10^−6 cm/s), “++” (0.1-2.0 10^−6 cm/s), “+++” (2.0-10.010^−6 cm/s) or “++++” (>10.0 10^−6 cm/s).

NaV1.7 [2] = molecular target: T1, NaV1.7 (Homo sapiens, UniProt Q15858); test: Automated patch clamp (Qube 384), internal block of NaV1.7 in HEK293 cells; format: cell-based; conditions: compound in internal solution, read-out: NaV1.7 Intracellular Inhibition
T1 construct: expressed in transfected cells; host or cells: HEK293, tetracycline-inducible
T1 sequence (Q15858 whole entry): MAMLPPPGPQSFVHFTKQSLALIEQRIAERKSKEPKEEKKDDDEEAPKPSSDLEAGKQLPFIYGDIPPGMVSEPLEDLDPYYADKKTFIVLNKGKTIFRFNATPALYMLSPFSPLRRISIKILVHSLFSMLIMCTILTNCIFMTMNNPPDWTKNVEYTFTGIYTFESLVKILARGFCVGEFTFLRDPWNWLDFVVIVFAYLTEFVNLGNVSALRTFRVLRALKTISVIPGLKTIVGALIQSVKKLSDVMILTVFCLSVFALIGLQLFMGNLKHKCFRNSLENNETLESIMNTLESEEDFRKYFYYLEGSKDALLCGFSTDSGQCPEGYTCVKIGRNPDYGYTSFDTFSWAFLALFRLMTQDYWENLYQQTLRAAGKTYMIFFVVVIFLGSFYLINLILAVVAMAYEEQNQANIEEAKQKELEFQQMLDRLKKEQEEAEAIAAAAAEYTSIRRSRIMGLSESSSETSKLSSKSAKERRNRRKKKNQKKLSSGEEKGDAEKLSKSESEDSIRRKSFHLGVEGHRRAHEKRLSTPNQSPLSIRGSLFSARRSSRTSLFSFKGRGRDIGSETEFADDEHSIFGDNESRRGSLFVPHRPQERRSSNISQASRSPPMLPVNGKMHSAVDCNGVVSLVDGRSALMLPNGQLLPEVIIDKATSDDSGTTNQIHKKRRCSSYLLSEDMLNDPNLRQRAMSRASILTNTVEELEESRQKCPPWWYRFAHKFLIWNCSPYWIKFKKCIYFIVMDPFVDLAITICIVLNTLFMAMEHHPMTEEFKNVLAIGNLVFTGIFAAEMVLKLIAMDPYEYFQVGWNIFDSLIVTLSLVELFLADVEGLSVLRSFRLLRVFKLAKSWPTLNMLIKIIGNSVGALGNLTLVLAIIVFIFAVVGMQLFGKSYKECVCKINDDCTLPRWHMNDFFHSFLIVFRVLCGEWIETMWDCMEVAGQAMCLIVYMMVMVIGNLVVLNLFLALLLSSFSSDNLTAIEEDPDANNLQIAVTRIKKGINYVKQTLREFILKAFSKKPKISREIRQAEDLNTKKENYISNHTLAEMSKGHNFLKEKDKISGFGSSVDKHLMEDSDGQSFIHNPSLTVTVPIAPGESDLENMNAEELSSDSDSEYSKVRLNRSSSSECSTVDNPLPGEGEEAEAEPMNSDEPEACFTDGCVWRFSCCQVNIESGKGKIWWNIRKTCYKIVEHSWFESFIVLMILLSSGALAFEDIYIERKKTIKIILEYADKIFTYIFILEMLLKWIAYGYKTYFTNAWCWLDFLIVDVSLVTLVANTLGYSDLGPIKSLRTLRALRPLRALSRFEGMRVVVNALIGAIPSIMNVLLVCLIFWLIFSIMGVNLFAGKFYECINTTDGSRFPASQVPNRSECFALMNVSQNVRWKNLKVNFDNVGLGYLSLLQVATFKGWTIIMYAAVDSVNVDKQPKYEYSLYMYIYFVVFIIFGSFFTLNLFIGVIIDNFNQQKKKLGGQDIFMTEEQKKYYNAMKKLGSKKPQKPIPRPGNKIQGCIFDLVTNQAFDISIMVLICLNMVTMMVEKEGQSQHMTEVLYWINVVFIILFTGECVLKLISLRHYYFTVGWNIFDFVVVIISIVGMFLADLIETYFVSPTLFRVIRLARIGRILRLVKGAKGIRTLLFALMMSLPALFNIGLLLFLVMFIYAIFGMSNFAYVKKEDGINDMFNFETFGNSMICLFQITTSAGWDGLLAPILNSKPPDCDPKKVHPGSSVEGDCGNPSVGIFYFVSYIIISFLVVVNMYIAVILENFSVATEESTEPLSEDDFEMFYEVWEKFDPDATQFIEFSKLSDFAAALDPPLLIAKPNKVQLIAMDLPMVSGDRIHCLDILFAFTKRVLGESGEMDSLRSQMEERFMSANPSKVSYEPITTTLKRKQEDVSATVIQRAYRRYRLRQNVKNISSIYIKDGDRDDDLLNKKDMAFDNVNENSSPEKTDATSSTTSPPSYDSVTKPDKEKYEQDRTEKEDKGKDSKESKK
Method: (§1) NaV1.7 was expressed in HEK293 cells upon induction with tetracycline. Cells were cultured in DMEM containing 10% dialyzed Fetal Bovine Serum (VWR, Radnor, Pa.), 1% Glutamax (VWR, Radnor, Pa.), 1% Penicillin-Streptomycin (VWR, Radnor, Pa.), 100 mg/L Hygromycin (Thermo Fisher Scientific, Waltham, Mass. and 5 mg/L Blasticidin (Alfa Aesar, Haverhill, Mass.). Cells were grown and maintained at 37° C. in a humidified environment containing 10% CO2 in air. Cells were detached from the culture flask for passage and harvested using 0.05% Trypsin-EDTA (Thermo Fisher Scientific, Waltham, Mass.). To induce NaV1.7, cells were induced with tetracycline (0.1-1 μg/mL, IBI Scientific, Peosta, Iowa) the day before recording.
Before experiments, cells were washed with DPBS (VWR, Radnor, Pa.), digested with Detachin (VWR Radnor, Pa.) and then triturated 10 times in CHO Serum-Free Media (VWR Radnor, Pa.) to resuspend the cells and to break apart cell aggregates. Cells were counted and the final concentration was set at 2-5 million cells per mL.
The intracellular solution contained the following: 140 mM CsF, 1 mM/5 mM EGTA/CsOH, 10 mM HEPES, 10 mM NaCl, adjusted to pH 7.3 with CsOH, and osmolality to 320 with sucrose. The external solution contained the following: 145 mM NaCl, 4 mM KCl, 1 mM MgCl2, 2 mM CaCl2, 10 mM HEPES, 10 mM Glucose, adjusted to pH 7.4 with CsOH and osmolality to 305 with sucrose. All chemicals are from Sigma-Aldrich, St. Louis, Mo. In order to test the degree of internal block by test compounds, the compounds were dissolved in internal solution at the indicated test concentration. […] In order to test the degree of external block by test compounds the compounds were dissolved in external solution at the indicated test concentration.
Automated Patch Clamps were performed on Qube 384 (Sophion Bioscience, Woburn Mass.) with multihole Qchips at a temperature setting of 22 degrees. The whole cells configuration was formed with default Qube seal and break-in parameter. The membrane potential was held at −100 mV before the voltage protocol began. Two voltage protocols were followed.
Step 1: Cells were held at −100 mV with a depolarized pulse to −20 mV for 10 ms, the interval was set at 5 s. Currents were corrected by default leak subtraction from every pulse. The duration was set at 5 mins.
Step 2: Cells were held at −100 mV with a depolarized pulse to −20 mV for 10 ms. The frequency was 5 Hz. Currents were corrected by leak subtraction calculated before step 2. The duration was set at 4 mins.
After Step 2, the Qchip was removed from the recording chamber. The internal solution was changed with solutions containing test compounds. Qchips were held at −100 mV without pulsing after being replaced in the recording chamber. The total solution switching time was 8 minutes. After the internal solution exchange, Cells were recorded and step 2 for repeated for 10 minutes.
Data analysis was performed by Sophion Analyzer. Cells were filtered with minimum 50 MOhm seal resistance and minimum 5 nA starting current. The rundown of the currents was corrected with control cells (Non-Drug). The remaining was calculated by averaging last 3 points in the end of experiments. The base line was calculated as the average of last 3 points of Step 2. IC50 curves were plotted with DR-plots/Hill function (a dose-response plot with a Hill fit).
Representative examples of the invention were tested for intracellular inhibition of NaV 1.7 in the automated patch clamp assay. Activity Range is reported as IC50: “++++” (<1 μM), “+++” (1-3 μM), “++” (3-10 μM) or “+” (10-30 μM).

NaV1.7 [3] = molecular target: T1, NaV1.7; test: Whole cell patch clamp, internal block of NaV1.7 current; format: cell-based; conditions: % inhibition at 1 μM test concentration, compound in internal solution, manual whole cell patch clamp
Method: as §1, with “expressed” for “expressed in HEK293 cells”, “C02” for “CO2”, “recording and plated onto 24-well plates. Cells were washed with DPBS (VWR, Radnor, Pa.), trypsinized and then triturated five times in 10 mL of growth media to break apart cell aggregates. For one 24-well plate, 2 mL of cell suspension was mixed with 23 mL of fresh growth media and 0.1-1 μg/mL tetracycline added. 1 ml of mixed media with cells was then added to each well of a 24-well plate, with a 12 mm coverslip already placed in the bottom of the well. Cells were then incubated in 37° C. and 10% CO2 overnight.” for “recording.”
The intracellular solution contained the following (in mM) CsCl 135, NaCl 10, EGTA 10, HEPES 10, MgCl2 2, adjusted to pH 7.2 with CsOH. The external solution was a normal Ringer solution containing (in mM) NaCl 155, HEPES 10, glucose 10, KCl 3.5, CaCl2 1.5, MgCl2 1 adjusted to pH 7.4 with NaOH. CsCl is from Alfa Aesar, Haverhill, Mass. All other chemicals are from Sigma-Aldrich, St. Louis, Mo. In order to test the degree of internal block by test compounds the compounds were dissolved in internal solution at the indicated test concentration. […] In order to test the degree of external block by test compounds the compounds were dissolved in external solution at the indicated test concentration.
18-24 hours after cells were induced with tetracycline, coverslips were placed into a chamber filled with Normal Ringer solution at room temperature and the chamber placed on a microscope. Pipettes were pulled from borosilicate glass on a P97 puller (Sutter Instrument, Novato, Calif.) and polished with a MF-830 Microforge (Narishige International USA, Inc, Amityville, N.Y.) to have a resistance of 1.5-2.5 MΩ when filled with CsCl internal solution at room temperature. Healthy cells (those that are round and translucent with no visible blemishes) were chosen for seal formation. A seal was formed between the pipette and the cell, and a brief pulse of suction was used to “break in” and establish the whole-cell configuration. The membrane potential was held at −100 mV before the voltage protocol began. Only cells with series resistance between 1.5-5 MΩ were retained for analysis. The voltage protocol was as follows: Cells were held at −100 mV for 12 ms followed by a hyperpolarizing step to −105 mV for 12 ms to monitor the leak. Cells were then stepped back to −100 mV for 40 ms. Cells were then depolarized to −20 mV for 10 ms and then returned to −100 mV for 26 ms (The FIGURE).
Once the recording was started, the voltage protocol was run at 30 second intervals for 5 minutes to get a stable baseline. This was followed by four 30-second periods of 5 Hz stimulation of the same voltage protocol separated by 1 minute of rest which was then followed by 0.33 Hz stimulation after the last train. Currents were recorded using PatchMaster software with Heka EPC10 (HEKA Electronics, Lambrecht, Germany). Only cells with inward current amplitudes at −20 mV between 400 pA and 4 nA were accepted. In addition, cells having leak currents greater than 10% of their current amplitudes were discarded.
The data was plotted using the Patchmaster software (HEKA Electronics, Lambrecht, Germany) and analyzed by plotting the minimum current during the voltage step to −20 mV (peak inward current) as a function of time. […]

| Compound | PAMPA (10^−6 cm/s) [1] | IC50 (NaV1.7 [2]) | NaV1.7 Intracellular Inhibition (NaV1.7 [3]) |
| --- | --- | --- | --- |
| CCCN(CCC)C(=O)C1CCC[N+](CC)(CC(=O)Nc2c(C)cccc2C(=O)OC)C1 (mixture of isomers) [Compound 47] | + (<0.1 10^−6 cm/s) |  |  |
| CC[N+]1(CC(=O)Nc2c(C)cccc2C(=O)OC)CCCC(C(=O)N2CCCCCC2)C1 (mixture of isomers) [Compound 51] | + (<0.1 10^−6 cm/s) | 1000 to 3000 nM |  |
| CC[N+]1(CC(=O)Nc2c(C)cccc2C(=O)OC)CCCC(C(=O)NC2CCCC2)C1 (mixture of isomers) [Compound 52] | + (<0.1 10^−6 cm/s) | 1000 to 3000 nM |  |
| CCOC(=O)c1cccc(C)c1NC(=O)C[N+]1(Cc2ccccc2)CCCCCCC1.[Br-] [Compound 10] | + (<0.1 10^−6 cm/s) |  | +++ (90-70%) |
| CCOC(=O)C1CCC[N+](CC)(CC(=O)Nc2c(C)cccc2C(=O)OC)C1.[I-] (centres unmarked) [Compound 24] | + (<0.1 10^−6 cm/s) |  | ++ (70-30%) |
| CCN(CC)C(=O)C1CCC[N+](CC(=O)Nc2c(C)cccc2C(=O)OC)(Cc2ccccc2)C1.O=C([O-])C(F)(F)F (centres unmarked) [Compound 38] | + (<0.1 10^−6 cm/s) |  | ++ (70-30%) |
| CC[N+]1(CC(=O)Nc2c(C)cccc2C(=O)OC)CCCC(C(=O)N(C)C)C1.[I-] (centres unmarked) [Compound 44] | + (<0.1 10^−6 cm/s) |  | + (<30%) |
| CC[N+]1(CC(=O)Nc2c(C)cccc2C(=O)OC)CCCC(C(=O)NCC(C)C)C1.[I-] (centres unmarked) [Compound 48] | + (<0.1 10^−6 cm/s) | 1000 to 3000 nM |  |
| CC[N+]1(CC(=O)Nc2c(C)cccc2C(=O)OC)CCCC(C(=O)NC(C)C)C1.[I-] (centres unmarked) [Compound 50] | + (<0.1 10^−6 cm/s) | 1000 to 3000 nM |  |
| CCN(CC)C(=O)C1CCC[N+](CC)(CC(=O)Nc2c(C)cccc2C(=O)OC)C1.[I-] (centres unmarked) [Compound 53] | + (<0.1 10^−6 cm/s) | 1000 to 3000 nM |  |
| CCOC(=O)c1cccc(C)c1NC(=O)C[n+]1cccc(C(=O)OC2CCCC2)c1.[Br-] [Compound 68] | +++ (2.0-10.010^−6 cm/s) | 3000 to 10000 nM |  |

Results, then the compound that gave them:

| PAMPA (10^−6 cm/s) [1] | IC50 (NaV1.7 [2]) | NaV1.7 Intracellular Inhibition (NaV1.7 [3]) | Compound |
| --- | --- | --- | --- |
| +++ (2.0-10.010^−6 cm/s) | 3000 to 10000 nM |  | COC(=O)c1cccc(C)c1NC(=O)C[N+]1(Cc2ccccc2)CCCC(C(=O)OC2CCCCC2)C1 (mixture of isomers) [Compound 17] |
| + (<0.1 10^−6 cm/s) | 1000 to 3000 nM |  | CCCOC(=O)C1CCC[N+](CC(=O)Nc2c(C)cccc2C(=O)OC)(Cc2ccccc2)C1 (mixture of isomers) [Compound 18] |
| + (<0.1 10^−6 cm/s) | 1000 to 3000 nM |  | COC(=O)c1cccc(C)c1NC(=O)C[N+]1(Cc2ccccc2)CCCC(C(=O)OCC(C)C)C1 (mixture of isomers) [Compound 20] |
| + (<0.1 10^−6 cm/s) | 1000 to 3000 nM |  | COC(=O)c1cccc(C)c1NC(=O)C[N+]1(Cc2ccccc2)CCCC(C(=O)N2CCCCC2)C1 (mixture of isomers) [Compound 37] |
| + (<0.1 10^−6 cm/s) | 1000 to 3000 nM |  | COC(=O)c1cccc(C)c1NC(=O)C[N+]1(Cc2ccccc2)CCCC(C(=O)NC2CCCCC2)C1 (mixture of isomers) [Compound 42] |
|  | < 1000 nM |  | COC(=O)c1cccc(C)c1NC(=O)C[N+]1(Cc2ccccc2)CCCC(C(=O)OC(C)C)C1 (centres unmarked) [Compound 19] |
| + (<0.1 10^−6 cm/s) | 3000 to 10000 nM |  | COC(=O)c1cccc(C)c1NC(=O)C[N+]1(Cc2ccccc2)CCCC(C(=O)OC2CCCC2)C1.[Br-] (centres unmarked) [Compound 21] |
| + (<0.1 10^−6 cm/s) | 1000 to 3000 nM |  | CC[N+]1(CC(=O)Nc2c(C)cccc2C(=O)OC)CCCC(C(=O)OC2CCCC2)C1.[I-] (centres unmarked) [Compound 22] |
| + (<0.1 10^−6 cm/s) |  | + (<30%) | CCCN(CCC)C(=O)C1CCC[N+](CC(=O)Nc2c(C)cccc2C(=O)OC)(Cc2ccccc2)C1.[Br-] (centres unmarked) [Compound 39] |
